Source: ChEMBL document CHEMBL5154928, “Structure-Aided Design, Synthesis, and Biological Evaluation of Potent and Selective Non-Nucleoside Inhibitors Targeting Protein Arginine Methyltransferase 5” (J Med Chem, 2022)
The source made the active and inactive calls. The calls are words filed in the database; no cut-off is given here.

Experiments:
[1] = target: T1, Protein arginine N-methyltransferase 5 (Homo sapiens, UniProt O14744); assay: Displacement of [3H]-SAM from PRMT5 (unknown origin) at 10 uM using peptide substrate preincubated for 15 mins followed by substrate addition for 60 mins by radioactive biochemical assay relative to control
[2] = target: T1, Protein arginine N-methyltransferase 5; assay: Displacement of [3H]-SAM from PRMT5 (unknown origin) using peptide substrate preincubated for 15 mins followed by substrate addition for 60 mins by radioactive biochemical assay
A-375 [3] = assay: Antiproliferation activity against human A-375 cells assessed as cell growth inhibition incubated for 5 days by CCK-8 assay; conditions: A-375, 120 h
[4] = Metabolic stability in human liver microsomes assessed as half life incubated for 10 mins measured up to 60 mins in presence of NADPH by LC-MS/MS analysis; type: ADME, Microsome
[5] = target: T1, Protein arginine N-methyltransferase 5; assay: Inhibition of PRMT5 in human A-375 cells assessed as decrease in […] levels measured after 48 hrs by Western blot analysis; type: cell-based; conditions: dose 0.5-8 µM, DDE = dose-dependent effect
[6] = AUC (0 to infinity) in Sprague-Dawley rat at 10 mg/kg, po measured for 0.25 to 24 hrs by LC-MS/MS analysis; type: ADME, organism-based; design: dose 10 mg/kg, time upper 24 hrs, time lower 0.25 hrs, route po; conditions: in vivo
[7] = AUC (0 to infinity) in mouse at 3 mg/kg, iv measured for 0.25 to 24 hrs by LC-MS/MS analysis; type: ADME, organism-based; design: time upper 24 hrs, time lower 0.25 hrs, dose 3 mg/kg, route iv; conditions: in vivo
[8] = Cmax in Sprague-Dawley rat at 10 mg/kg, po measured for 0.25 to 24 hrs by LC-MS/MS analysis; type: ADME, organism-based; design: time lower 0.25 hrs, dose 10 mg/kg, time upper 24 hrs, route po; conditions: in vivo
[9] = Half life in Sprague-Dawley rat at 10 mg/kg, po measured for 0.25 to 24 hrs by LC-MS/MS analysis; type: ADME, organism-based; conditions: in vivo, time 0.25-24 hrs
[10] = Clearance in mouse at 3 mg/kg, iv measured for 0.25 to 24 hrs by LC-MS/MS analysis; type: ADME, organism-based; conditions: in vivo, time 0.25-24 hrs
[11] = Volume of distribution at steady state in mouse at 3 mg/kg, iv measured for 0.25 to 24 hrs by LC-MS/MS analysis; type: ADME, organism-based; conditions: in vivo, time 0.25-24 hrs, read-out: Vdss
[12] = Cmax in mouse at 10 mg/kg, po measured for 0.25 to 24 hrs by LC-MS/MS analysis; type: ADME, organism-based; design: time lower 0.25 hrs, dose 10 mg/kg, time upper 24 hrs, route po; conditions: in vivo
[13] = Oral bioavailability in Sprague-Dawley rat at 10 mg/kg, measured for 0.25 to 24 hrs by LC-MS/MS analysis; type: ADME, organism-based; conditions: in vivo, time 0.25-24 hrs
[14] = Half life in mouse at 3 mg/kg, iv measured for 0.25 to 24 hrs by LC-MS/MS analysis; type: ADME, organism-based; conditions: in vivo, time 0.25-24 hrs
[15] = Oral bioavailability in mouse at 10 mg/kg, measured for 0.25 to 24 hrs by LC-MS/MS analysis; type: ADME, organism-based; conditions: in vivo, time 0.25-24 hrs
SNU-423 = assay: Antiproliferation activity against human SNU-423 cells assessed as cell growth inhibition incubated for 5 days by CCK-8 assay; type: functional, cell-based; conditions: dose <= 10.0 µM, time 5.0 day, DDE = dose-dependent effect
[16] = target: T1, Protein arginine N-methyltransferase 5; assay: Competitive inhibition of PRMT5 (unknown origin) at 0.001 to 100000 nM using histone H4 (1 to 21 residues) as substrate incubated for 120 mins in presence of different concentrations of SAM by AlphaLISA assay; conditions: dose 0.001-100000 nM
Mus musculus [17] = assay: In vivo inhibition of PRMT5 in human A-375 cells xenografted in BALB/c mouse assessed as reduction in H4R3me2s levels in tumor tissue at 75 mg/kg, po qd for 19 days measured after 3 weeks by Western blot analysis; type: functional, organism-based; conditions: time 19.0 day
MDA-MB-231 = assay: Antiproliferation activity against human MDA-MB-231 cells assessed as cell growth inhibition incubated for 5 days by CCK-8 assay; type: functional, cell-based; conditions: dose <= 10.0 µM, time 5.0 day, DDE = dose-dependent effect
Mus musculus [18] = assay: In vivo inhibition of PRMT5 in human A-375 cells xenografted in BALB/c mouse assessed as reduction in H3R8me2s levels in tumor tissue at 75 mg/kg, po qd for 19 days measured after 3 weeks by Western blot analysis; type: functional, organism-based; conditions: time 19.0 day
SNU-449 = assay: Antiproliferation activity against human SNU-449 cells assessed as cell growth inhibition incubated for 5 days by CCK-8 assay; type: functional, cell-based; conditions: dose <= 10.0 µM, time 5.0 day, DDE = dose-dependent effect
MDA-MB-453 = assay: Antiproliferation activity against human MDA-MB-453 cells assessed as cell growth inhibition incubated for 5 days by CCK-8 assay; type: functional, cell-based; conditions: dose <= 10.0 µM, time 5.0 day, DDE = dose-dependent effect
MV4-11 = assay: Antiproliferation activity against human MV4-11 cells assessed as cell growth inhibition incubated for 5 days by CCK-8 assay; type: functional, cell-based; conditions: dose <= 10.0 µM, time 5.0 day, DDE = dose-dependent effect
[19] = target: T1, Protein arginine N-methyltransferase 5; assay: Competitive inhibition of PRMT5 (unknown origin) in presence of MTA
Mus musculus [20] = assay: In vivo inhibition of PRMT5 in human A-375 cells xenografted in BALB/c mouse assessed as reduction in sDMA levels in tumor tissue at 75 mg/kg, po qd for 19 days measured after 3 weeks by Western blot analysis; type: functional, organism-based; conditions: time 19.0 day
MOLM-13 = assay: Antiproliferation activity against human MOLM-13 cells assessed as cell growth inhibition incubated for 5 days by CCK-8 assay; type: functional, cell-based; conditions: dose <= 10.0 µM, time 5.0 day, DDE = dose-dependent effect
A-375 [21] = assay: Induction of apoptosis in human A-375 cells incubated for 48 hrs by Annexin-V FITC/PI staining based flow cytometry analysis; type: functional, cell-based; conditions: dose 0.5-4 µM, DDE = dose-dependent effect
CHL-1 = assay: Antiproliferation activity against human CHL-1 cells assessed as cell growth inhibition incubated for 5 days by CCK-8 assay; type: functional, cell-based; conditions: dose <= 10.0 µM, time 5.0 day, DDE = dose-dependent effect

T1 sequence (O14744 whole entry): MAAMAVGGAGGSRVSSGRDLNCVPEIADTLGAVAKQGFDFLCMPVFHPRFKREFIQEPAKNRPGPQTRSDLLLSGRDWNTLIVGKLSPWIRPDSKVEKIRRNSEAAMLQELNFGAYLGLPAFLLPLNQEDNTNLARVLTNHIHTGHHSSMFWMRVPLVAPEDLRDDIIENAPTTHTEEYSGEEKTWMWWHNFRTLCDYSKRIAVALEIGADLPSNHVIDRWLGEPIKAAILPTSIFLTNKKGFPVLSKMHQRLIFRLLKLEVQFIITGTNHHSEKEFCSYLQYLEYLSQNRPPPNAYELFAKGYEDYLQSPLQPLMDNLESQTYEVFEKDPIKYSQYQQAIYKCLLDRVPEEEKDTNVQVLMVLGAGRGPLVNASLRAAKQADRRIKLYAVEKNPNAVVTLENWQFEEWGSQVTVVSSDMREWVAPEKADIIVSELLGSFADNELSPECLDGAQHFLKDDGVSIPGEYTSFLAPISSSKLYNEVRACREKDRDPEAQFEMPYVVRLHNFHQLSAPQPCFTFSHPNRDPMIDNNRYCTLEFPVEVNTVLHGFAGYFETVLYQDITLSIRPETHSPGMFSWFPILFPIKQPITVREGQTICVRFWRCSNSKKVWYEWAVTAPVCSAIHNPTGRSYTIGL

## Nc1ncnc2c1ncn2-c1ccc(OCc2ccccc2)cc1
[1]
  inhibition: 20.2%

## Nc1ncnc2[nH]c(-c3ccc(OCc4ccccc4)cc3)nc12
[1]
  inhibition: 84.4%
[2]
  IC50: 59.4 nM

## CN1CCCN(c2ncnc3[nH]c(-c4ccc(OCc5ccccc5)cc4)cc23)CC1
[2]
  IC50: 16.7 nM

## c1ccc(COc2ccc(-c3cc4c(NC5CCNCC5)ncnc4[nH]3)cc2)cc1
[2]
  IC50: 22.3 nM

## C[C@@H]1CN(c2ncnc3[nH]c(-c4ccc(OCc5ccccc5)cc4)cc23)C[C@H](C)N1
[2]
  IC50: 21.7 nM

## Nc1ncnc2c1ccn2Cc1ccc(Oc2ccccc2)cc1
[1]
  inhibition: 14.1%

## COc1cc(O[C@@H](C)c2ccccc2)ccc1-c1cc2c(C3=CCNCC3)ncnc2[nH]1
A-375 [3]
  IC50: 7920 nM
[2]
  IC50: 193 nM

## CC(Oc1ccc(-c2nc3c(C4=CCNCC4)ncnc3[nH]2)cc1)c1ccccc1 (racemic)
A-375 [3]
  IC50: 7170 nM
[2]
  IC50: 37.1 nM

## C[C@H](Oc1ccc(-c2nc3c(C4=CCNCC4)ncnc3[nH]2)c(F)c1)c1ccccc1
A-375 [3]
  IC50: 5420 nM
[2]
  IC50: 79.6 nM
[4]
  half-life: 41.3 min

## c1ccc(COc2ccc(-c3cc4c(N5CCCNCC5)ncnc4[nH]3)cc2)cc1
[2]
  IC50: 10.4 nM

## CC1(O)CCN(c2ncnc3[nH]c(-c4ccc(OCc5ccccc5)cc4)cc23)CC1
[2]
  IC50: 88.8 nM

## c1ccc(COc2ccc(-c3cc4c(-c5cn[nH]c5)ncnc4[nH]3)cc2)cc1
[2]
  IC50: 113 nM

## Nc1ncnc2[nH]c(-c3ccc(OCc4ccccc4)cc3)cc12
[1]
  inhibition: 81.9%
[2]
  IC50: 83.9 nM

## c1ccc(COc2ccc(-c3nc4c(N5CCOCC5)ncnc4[nH]3)cc2)cc1
[2]
  IC50: 44.7 nM

## C[C@@H](Oc1ccc(-c2nc3c(C4=CCNCC4)ncnc3[nH]2)c(F)c1)c1ccccc1
A-375 [3]
  IC50: 8690 nM
[2]
  IC50: 157 nM

## Cc1cc(-c2cc3c(C4=CCNCC4)ncnc3[nH]2)ccc1O[C@@H](C)c1ccccc1
A-375 [3]
  IC50: 8260 nM
[2]
  IC50: 80.9 nM
[4]
  half-life: 56.8 min

## Nc1ncnc2c1ccn2Cc1ccccc1
[1]
  inhibition: 18.1%

## C[C@H](Oc1ccc(-c2nc3c(C4=CCNCC4)ncnc3[nH]2)cc1)c1ccccc1
A-375 [3]
  IC50: 5960 nM
[2]
  IC50: 34.5 nM
[4]
  half-life: 70.1 min

## Nc1ncnc2c1ncn2Cc1ccccc1
[1]
  inhibition: 15.6%

## CC(Oc1ccc(-c2cc3c(C4=CCNCC4)ncnc3[nH]2)cc1)c1ccccc1 (racemic)
A-375 [3]
  IC50: 2480 nM
[2]
  IC50: 43.5 nM
[4]
  half-life: 26 min

## c1ccc(COc2ccc(-c3cc4c(N5CCNCC5)ncnc4[nH]3)cc2)cc1
[2]
  IC50: 11.4 nM

## CC(Oc1ccc(-c2cc3c(C4=CCNCC4)ncnc3[nH]2)c(F)c1)c1ccccc1 (racemic)
A-375 [3]
  IC50: 4620 nM
[2]
  IC50: 30.4 nM

## O=C(NC[C@H](O)CN1CCc2ccccc2C1)c1cc(NC2COC2)ncn1
[5]
  inhibition: Dde

## c1ccc(COc2ccc(-c3cc4c(N5CCC6(CC5)COC6)ncnc4[nH]3)cc2)cc1
[2]
  IC50: 51 nM

## c1ccc(COc2ccc(-c3cc4c(N5CCOCC5)ncnc4[nH]3)cc2)cc1
[2]
  IC50: 55 nM

## Cn1cc(-c2ncnc3[nH]c(-c4ccc(OCc5ccccc5)cc4)cc23)cn1
[2]
  IC50: 119 nM

## O=C1CN(c2ncnc3[nH]c(-c4ccc(OCc5ccccc5)cc4)cc23)CCN1
[2]
  IC50: 50.8 nM

## CN(C)CCN(C)c1ncnc2[nH]c(-c3ccc(OCc4ccccc4)cc3)cc12
[2]
  IC50: 17.3 nM

## Nc1ncnc2c1ccn2Cc1cccc(Oc2ccccc2)c1
[1]
  inhibition: 15.5%

## C[C@@H](Oc1ccc(-c2cc3c(C4=CCNCC4)ncnc3[nH]2)c(F)c1)c1ccccc1
A-375 [3]
  IC50: 6490 nM
[2]
  IC50: 103 nM

## CN1CCN(c2ncnc3[nH]c(-c4ccc(OCc5ccccc5)cc4)cc23)CC1
[2]
  IC50: 27.5 nM

## c1ccc(COc2ccc(-c3nc4c(N5CCNCC5)ncnc4[nH]3)cc2)cc1
[2]
  IC50: 11.5 nM

## Nc1ncnc2c1ccn2-c1ccc(OCc2ccccc2)cc1
[1]
  inhibition: 10.5%

## C[C@H](Oc1ccc(-c2cc3c(C4=CCNCC4)ncnc3[nH]2)cc1)c1ccccc1.Cl
[6]
  AUC: 205 h/ng/mL
[7]
  AUC: 464 h/ng/mL
[8]
  Cmax: 27.7 ng/mL
[9]
  half-life: 177 min
[10]
  clearance: 153 mL/min/kg
[11]
  Vd: 47.7 L/kg
[12]
  Cmax: 128 ng/mL
[13]
  bioavailability: 23.7%
[14]
  half-life: 283 min
[15]
  bioavailability: 46.2%

## Cc1cc(O[C@@H](C)c2ccccc2)ccc1-c1cc2c(C3=CCNCC3)ncnc2[nH]1
A-375 [3]
  IC50: 3390 nM
[2]
  IC50: 32.8 nM
[4]
  half-life: 47.3 min

## c1ccc(COc2ccc(-c3cc4c(N5CCN(C6COC6)CC5)ncnc4[nH]3)cc2)cc1
[2]
  IC50: 40 nM

## C[C@H](Oc1ccc(-c2cc3c(C4=CCNCC4)ncnc3[nH]2)cc1)c1ccccc1
[5]
  inhibition: Dde
SNU-423
  Activity: Dde
[16]
  Activity: Active
Mus musculus [17]
  Activity: Active
MDA-MB-231
  Activity: Dde
Mus musculus [18]
  Activity: Active
SNU-449
  Activity: Dde
MDA-MB-453
  Activity: Dde
MV4-11
  Activity: Dde
[19]
  Activity: Active
Mus musculus [20]
  Activity: Active
MOLM-13
  Activity: Dde
A-375 [21]
  Activity: Dde
CHL-1
  Activity: Dde

## C[C@H](Oc1ccc(-c2cc3c(C4=CCNCC4)ncnc3[nH]2)cc1F)c1ccccc1
A-375 [3]
  IC50: 3500 nM
[2]
  IC50: 23.9 nM
[4]
  half-life: 56.2 min

## C[C@@H](Oc1ccc(-c2nc3c(C4=CCNCC4)ncnc3[nH]2)cc1)c1ccccc1
A-375 [3]
  IC50: 7580 nM
[2]
  IC50: 114 nM

## CCN1CCN(c2ncnc3[nH]c(-c4ccc(OCc5ccccc5)cc4)cc23)CC1
[2]
  IC50: 71.3 nM

## C1=C(c2ncnc3[nH]c(-c4ccc(OCc5ccccc5)cc4)cc23)CCNC1
[2]
  IC50: 8 nM
[4]
  half-life: 2.99 min

## C1=C(c2ncnc3[nH]c(-c4ccc(OCc5ccccc5)cc4)nc23)CCNC1
[2]
  IC50: 14.2 nM
[4]
  half-life: 2.09 min

## CC(Oc1ccc(-c2nc3c(C4=CCNCC4)ncnc3[nH]2)c(F)c1)c1ccccc1 (racemic)
A-375 [3]
  IC50: 7500 nM
[2]
  IC50: 234 nM

## C[C@@H](Oc1ccc(-c2cc3c(C4=CCNCC4)ncnc3[nH]2)cc1)c1ccccc1
A-375 [3]
  IC50: 2570 nM
[2]
  IC50: 47.7 nM
[4]
  half-life: 18.3 min

## C[C@H](Oc1ccc(-c2cc3c(C4=CCNCC4)ncnc3[nH]2)c(F)c1)c1ccccc1
A-375 [3]
  IC50: 1750 nM
[2]
  IC50: 22.1 nM
[4]
  half-life: 42.3 min
